Laboratory results published in patent US20070259888A1, “Novel Compounds” (ASTRAZENECA AB, priority 2006, published 2007).

Legend:
[1] = molecular target: T1, hM1 (human Muscarinic receptor subtype 1) (Homo sapiens, UniProt P11229); experiment: Human M1 calcium mobilization FLIPR assay; assay type: cell-based; settings: CHO cells expressing hM1, FLIPR; for EC50: read-out: hM1EC50; for Emax: read-out: hM1Emax
T1 construct: expressed in transfected cells; host or cells: CHO cells (chinese hamster ovary cells, ATCC)
T1 sequence (P11229 1-460): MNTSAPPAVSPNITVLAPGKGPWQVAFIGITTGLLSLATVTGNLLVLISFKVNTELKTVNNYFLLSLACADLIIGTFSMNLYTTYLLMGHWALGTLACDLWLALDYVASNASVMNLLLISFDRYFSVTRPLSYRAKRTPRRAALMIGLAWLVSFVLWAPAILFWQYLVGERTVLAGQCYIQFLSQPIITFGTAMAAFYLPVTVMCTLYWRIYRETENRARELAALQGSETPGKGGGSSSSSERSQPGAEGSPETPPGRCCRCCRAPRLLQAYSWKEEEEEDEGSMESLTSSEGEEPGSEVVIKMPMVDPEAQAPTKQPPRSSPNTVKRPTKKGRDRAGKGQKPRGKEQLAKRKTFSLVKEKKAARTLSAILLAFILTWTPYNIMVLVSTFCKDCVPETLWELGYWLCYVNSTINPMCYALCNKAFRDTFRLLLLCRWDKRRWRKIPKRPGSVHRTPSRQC
Method: The compound activity in the present invention (EC50 or IC50) was measured using a 384 plate-based imaging assay that monitors drug induced intracellular Ca^2+ release in whole cells. Activation of hM1 (human Muscarinic receptor subtype 1, gene bank access NM_000738), rM1 (rat Muscarinic receptor subtype 1, gene bank access NM_080773), hM3 (human Muscarinic receptor subtype 3, gene bank access NM_000740NM_000740) and hM5 (human Muscarinic receptor subtype 5, gene bank access NM_0121258) receptors expressed in CHO cells (chinese hamster ovary cells, ATCC) was quantified in a Molecular Devices FLIPR II™ instrument as an increase in fluorescent signal. Inhibition of hM3 and hM5 by compounds was determined by the decrease in fluorescent signal in response to 2 nM acetylcholine activation.
CHO cells were plated in 384-black polylysine coated plate (Costar) at 8000 cells/well/50 μl for 24 hours or 4000 cells/well for 48 hours in a humidified incubator (5% CO2 and 37° C.) in DMEM/F12 medium without selection agent. Prior to the experiment the cell culture medium was removed from the plates by inversion. A loading solution of 30 μl of Hank's balanced salt solution, 10 mM Hepes and 2.5 mM Probenicid at Ph 7.4 (Cat no. 311-520-VL, Wisent) with 2 μM calcium indicator dye (FLUO-3AM, Molecular Probes F14202) was added to each well. Plates were incubated at 37° C. for 60 minutes prior to start the experiment. The incubation was terminated by washing the cells four times in assay buffer, leaving a residual 25 μl buffer per well. Cell plates were then transferred to the FLIPR, ready for compound additions.
The day of experiment, acetylcholine and compounds were diluted in three-fold concentration range (10 points serial dilution) for addition by FLIPR instrument. For all calcium assays, a baseline reading was taken for 30 seconds followed by the addition of 12.5 μl (25 μl for hM1 and rM1) of compounds, resulting in a total well volume of 37.5 μl (50 μl for hM1 and rM1). Data were collected every 1.6 seconds for 300 seconds. For hM3 and hM5 an additional 12.5 μl of acetylcholine (2 nM final) was added at 300 seconds. After this addition of acetylcholine (producing a final volume of 50 μl), the FLIPR continued to collect data every 2 seconds for 240 seconds. The fluorescence emission was read using filter 1 (emission 520-545 nm) by the FLIPR on board CCD camera.
Calcium mobilization output data were calculated as the maximal relative fluorescence unit (RFU) minus the minimal value for both compound and agonist reading frame (except for hM1 and rM1 using only the maximal RFU). Data were analyzed using sigmoidal fits of a non-linear curve-fitting program (XLfit version 5.0.6 from ID Business Solutions Limited, Guildford, UK). All EC50 and IC50 values are reported as geometric means of ‘n’ independent experiments.

[2] = molecular target: T2, human M2 receptor (human Muscarinic receptor subtype 2) (Homo sapiens, UniProt P08172); experiment: hM2 receptor GTPγS binding; assay type: biochemical; settings: CHO membranes expressing hM2, GTPγ35S binding; for EC50: read-out: hM2_EC50
T2 construct: purchased Perkin-Elmer RBHM2M; host or cells: Chinese hamster ovary cells (CHO), membranes
T2 sequence (P08172 1-466): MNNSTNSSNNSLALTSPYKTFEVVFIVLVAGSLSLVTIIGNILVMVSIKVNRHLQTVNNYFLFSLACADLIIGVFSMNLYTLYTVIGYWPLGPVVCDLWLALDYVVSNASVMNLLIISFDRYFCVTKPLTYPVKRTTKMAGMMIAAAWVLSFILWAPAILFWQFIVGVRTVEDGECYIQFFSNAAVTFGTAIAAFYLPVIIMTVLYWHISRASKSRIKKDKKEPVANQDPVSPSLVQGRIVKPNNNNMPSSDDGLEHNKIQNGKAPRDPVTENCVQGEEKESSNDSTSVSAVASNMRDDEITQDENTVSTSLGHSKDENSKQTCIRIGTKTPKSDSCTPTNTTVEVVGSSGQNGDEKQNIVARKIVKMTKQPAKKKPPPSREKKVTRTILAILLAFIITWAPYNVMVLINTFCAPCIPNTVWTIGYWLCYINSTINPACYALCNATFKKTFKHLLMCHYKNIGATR
Method: hM2 Receptor GTPyS Binding
Membranes produced from Chinese hamster ovary cells (CHO) expressing the cloned human M2 receptor (human Muscarinic receptor subtype 2, gene bank access NM_000739), were obtained from Perkin-Elmer (RBHM2M). The membranes were thawed at 37° C., passed 3 times through a 23-gauge blunt-end needle, diluted in the GTPγS binding buffer (50 mM Hepes, 20 mM NaOH, 100 mM NaCl, 1 mM EDTA, 5 mM MgCl2, pH 7.4, 100 μM DTT). The EC50, IC50 and Emax of the compounds of the invention were evaluated from 10-point dose-response curves (three fold concentration range) done in 60 μl in 384-well non-specific binding surface plate (Corning). Ten microliters from the dose-response curves plate (5× concentration) were transferred to another 384 well plate containing the following: 10 μg of hM2 membranes, 500 μg of Flashblue beads (Perkin-Elmer) and GDP in a 25 μl volume. An additional 15 μl containing 3.3× (55000 dpm) of GTPγ^35S (0.4 nM final) were added to the wells resulting in a total well volume of 50 μl. Basal and maximal stimulated GTPγ^35S binding was determined in absence and presence of 30 μM of acetylcholine agonist. The membranes/beads mix were pre-incubated for 15 minutes at room temperature with 25 μM GDP prior to distribution in plates (12.5 μM final). The reversal of acetylcholine-induced stimulation (2 μM final) of GTPγ^35S binding was used to assay the antagonist properties (IC50) of the compounds. The plates were incubated for 60 minutes at room temperature with shaking, then centrifuged at 2000 rpm for 5 minutes. The radioactivity (cpm) was counted in a Trilux (Perkin-Elmer).
Values of EC50, IC50 and Emax were obtained using sigmoidal fits of a non-linear curve-fitting program (XLfit version 5.0.6 from ID Business Solutions Limited, Guildford, UK) of percent-stimulated GTPγ^35S binding vs. log (molar ligand).
All EC50 and IC50 values are reported as geometric means of ‘n’ independent experiments. […] The IC50 was the concentration of the compound of the invention at which 50% inhibition of acetylcholine GTPγ^35S binding stimulation has been observed.

| EC50 [1] | Emax [1] | Emax [2] | EC50 [2] | SMILES |
| --- | --- | --- | --- | --- |
| 1500 nM | 76% | – | – | CCO[C@@H]1CCCN(C[C@H]2CCCC[C@@H]2NC(=O)c2cnccn2)C1 |
| 11 nM | 102% | 40% | 1430 nM | CCOC[C@@H]1CCCN(C[C@H]2CCCC[C@@H]2NC(=O)c2ccc(CNS(=O)(=O)C3CC3)cc2)C1 |
| 157 nM | 75% | 30% | 1080 nM | CCOC[C@@H]1CCCN(C[C@H]2CCCC[C@@H]2NC(=O)C2CCCCC2)C1 [N-((1S,2R)-2-{[(3R)-3-(ethoxymethyl)piperidin-1-yl]methyl}cyclohexyl)cyclohexanecarboxamide] |
| 26 nM | 82% | 0% | > 30000 nM | O=C(N[C@H]1CCCC[C@@H]1CN1CCCCC1)c1ccc(-n2cccn2)nc1 [N-[(1S,2R)-2-(piperidin-1-ylmethyl)cyclohexyl]-6-(1H-pyrazol-1-yl)nicotinamide] |
| 17 nM | 97% | 25% | 5480 nM | CCOCC1CCCN(C[C@@H]2CCCC[C@H]2NC(=O)c2ccc(-c3cnco3)cc2)C1 (mixture of isomers) |

The remaining lines, values behind:

| SMILES | EC50 [1] | Emax [1] | Emax [2] | EC50 [2] |
| --- | --- | --- | --- | --- |
| CCOC[C@@H]1CCCN(C[C@H]2CCCC[C@@H]2NC(=O)c2ccc(CN(C(C)=O)C(C)=O)cc2)C1 [4-[(diacetylamino)methyl]-N-((1S,2R)-2-{[(3R)-3-(ethoxymethyl)piperidin-1-yl]methyl}cyclohexyl)benzamide] | 103 nM | 91% | 18% | 3300 nM |
| O=C(N[C@H]1CCCC[C@@H]1CN1CCCCCC1)c1ccc(-n2cccn2)cc1 [N-[(1S,2R)-2-(azepan-1-ylmethyl)cyclohexyl]-4-(1H-pyrazol-1-yl)benzamide] | 130 nM | 70% | > 12% | > 30000 nM |
| CCOC[C@@H]1CCCN(C[C@H]2CCCC[C@@H]2NC(=O)c2ccc(N3CCCC3)nc2)C1 [N-((1S,2R)-2-{[(3R)-3-(ethoxymethyl)piperidin-1-yl]methyl}cyclohexyl)-6-pyrrolidin-1-ylnicotinamide] | 41 nM | 91% | 60% | 107 nM |
| O=C(N[C@H]1CCCC[C@@H]1CN1CCCC(c2ccccc2)C1)c1ccc(-n2cccn2)nc1 (stereo partly drawn) | 393 nM | 105% | – | – |
| CCOC[C@@H]1CCCN(C[C@H]2CCCC[C@@H]2NC(=O)c2ccc(CNS(C)(=O)=O)cc2)C1 [N-((1S,2R)-2-{[(3R)-3-(ethoxymethyl)piperidin-1-yl]methyl}cyclohexyl)-4-{[(methylsulfonyl)amino]methyl}benzamide] | 20 nM | 95% | 34% | 1340 nM |
| CCOC[C@@H]1CCCN(C[C@H]2CCCC[C@@H]2NC(=O)c2ccc3c(c2)OCCN3C)C1 [N-((1S,2R)-2-{[(3R)-3-(ethoxymethyl)piperidin-1-yl]methyl}cyclohexyl)-4-methyl-3,4-dihydro-2H-1,4-benzoxazine-7-carboxamide] | 152 nM | 85% | 0% | > 30000 nM |
| CCOC[C@@H]1CCCN(C[C@H]2CCCC[C@@H]2NC(=O)c2cnc(C)cc2C)C1 [N-((1S,2R)-2-{[(3R)-3-(ethoxymethyl)piperidin-1-yl]methyl}cyclohexyl)-4,6-dimethylnicotinamide] | 504 nM | 54% | – | – |
| CCOC[C@@H]1CCCN(C[C@H]2CCCC[C@@H]2NC(=O)CNC(C)=O)C1 | 322 nM | 91% | – | – |
| CCOC[C@@H]1CCCN(C[C@H]2CCCC[C@@H]2NC(=O)c2ccc(-n3cnnn3)cc2)C1 [N-((1S,2R)-2-{[(3R)-3-(ethoxymethyl)piperidin-1-yl]methyl}cyclohexyl)-4-(1H-tetrazol-1-yl)benzamide] | 9 nM | 95% | 27% | 1210 nM |
| C=CCOCC1CCCN(C[C@@H]2CCCC[C@H]2NC(=O)c2ccc(CN3CCN(C)CC3)cc2)C1 (mixture of isomers) [Trans-(±)-N-[2-({3-[(Allyloxy)methyl]piperidin-1-yl}methyl)cyclohexyl]-4-[(4-methylpiperazin-1-yl)methyl]benzamide] | 49 nM | 80% | 19% | 390 nM |
| CCOC[C@@H]1CCCN(C[C@H]2CCCC[C@@H]2NC(=O)c2ccccc2)C1 [N-((1S,2R)-2-{[(3R)-3-(ethoxymethyl)piperidin-1-yl]methyl}cyclohexyl)benzamide] | 119 nM | 74% | 34% | 1910 nM |
| C=CCOC[C@@H]1CCCN(C[C@H]2CCCC[C@@H]2NC(=O)c2ccc(-n3ccnc3)nc2)C1 [N-[(1S,2R)-2-({(3R)-3-[(allyloxy)methyl]piperidin-1-yl}methyl)cyclohexyl]-6-(1H-imidazol-1-yl)nicotinamide] | 5 nM | 95% | 22% | 216 nM |
